From ChEMBL document CHEMBL1201862, “PubChem BioAssay data set” (2004)
Activity calls are given as the source filed them.

Columns and labels:
Leucine aminopeptidase = target: T1, Leucine aminopeptidase (Plasmodium falciparum 3D7, UniProt Q8IL11); assay: P. falciparum M17LAP inhibitors, primary screen, biochemical, fluorogenic H-Leu-NHMec substrate, 1536-well (AID 1619); format: functional
T1 sequence (Q8IL11 whole entry): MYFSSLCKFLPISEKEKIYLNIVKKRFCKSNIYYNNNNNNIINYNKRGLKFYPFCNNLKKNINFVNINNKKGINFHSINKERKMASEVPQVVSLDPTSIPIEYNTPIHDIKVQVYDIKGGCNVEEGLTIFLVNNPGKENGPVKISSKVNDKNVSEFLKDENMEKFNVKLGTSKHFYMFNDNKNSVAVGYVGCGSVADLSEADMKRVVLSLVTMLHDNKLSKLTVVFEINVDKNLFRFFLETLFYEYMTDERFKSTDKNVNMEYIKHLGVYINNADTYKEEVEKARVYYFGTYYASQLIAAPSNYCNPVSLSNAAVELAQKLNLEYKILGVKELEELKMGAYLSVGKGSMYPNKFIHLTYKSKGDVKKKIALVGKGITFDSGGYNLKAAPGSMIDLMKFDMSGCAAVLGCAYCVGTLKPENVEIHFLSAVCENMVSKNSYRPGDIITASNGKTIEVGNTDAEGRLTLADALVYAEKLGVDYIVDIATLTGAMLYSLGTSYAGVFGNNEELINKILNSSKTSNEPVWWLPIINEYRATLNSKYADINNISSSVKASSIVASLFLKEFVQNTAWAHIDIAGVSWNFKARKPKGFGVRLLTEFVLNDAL

[1] = target: T2, Short transient receptor potential channel 4 (Mus musculus, UniProt Q9QUQ5); assay: mouse TRPC4 channel activators, dose response, cell-based, HEK293 TRPC4/mu-opioid, Fluo-4 calcium (AID 434937); format: functional
T2 sequence (Q9QUQ5 whole entry): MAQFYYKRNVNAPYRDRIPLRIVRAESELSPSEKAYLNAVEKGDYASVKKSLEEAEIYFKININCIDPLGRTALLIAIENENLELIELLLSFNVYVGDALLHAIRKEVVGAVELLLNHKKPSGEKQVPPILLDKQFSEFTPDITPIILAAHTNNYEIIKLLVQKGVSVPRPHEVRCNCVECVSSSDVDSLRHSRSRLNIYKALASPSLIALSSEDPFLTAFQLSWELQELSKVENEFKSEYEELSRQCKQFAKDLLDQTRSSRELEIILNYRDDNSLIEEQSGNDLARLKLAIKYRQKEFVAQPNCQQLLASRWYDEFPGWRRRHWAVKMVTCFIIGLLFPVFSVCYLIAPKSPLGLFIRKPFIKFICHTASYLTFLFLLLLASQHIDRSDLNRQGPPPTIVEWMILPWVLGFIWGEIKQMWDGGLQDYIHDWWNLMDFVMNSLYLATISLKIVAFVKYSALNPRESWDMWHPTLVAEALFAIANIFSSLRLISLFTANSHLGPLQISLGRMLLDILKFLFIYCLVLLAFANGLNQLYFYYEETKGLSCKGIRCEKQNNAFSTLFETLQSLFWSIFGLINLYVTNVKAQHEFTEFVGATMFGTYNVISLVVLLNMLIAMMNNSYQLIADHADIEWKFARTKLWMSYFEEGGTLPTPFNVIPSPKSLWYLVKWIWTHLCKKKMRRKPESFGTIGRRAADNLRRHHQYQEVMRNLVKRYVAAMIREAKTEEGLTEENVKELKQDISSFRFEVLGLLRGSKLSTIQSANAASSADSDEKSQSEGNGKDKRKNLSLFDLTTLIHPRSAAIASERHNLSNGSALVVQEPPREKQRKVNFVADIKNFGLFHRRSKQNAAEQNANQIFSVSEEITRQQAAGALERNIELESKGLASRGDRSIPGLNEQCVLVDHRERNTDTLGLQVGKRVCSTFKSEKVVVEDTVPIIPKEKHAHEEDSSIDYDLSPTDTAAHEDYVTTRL

[2] = target: T3, High affinity choline transporter 1 (Homo sapiens, UniProt Q9GZV3); assay: CHT inhibitors, dose response, cell-based, 5-point CRC, membrane potential dye (AID 504840); format: functional
T3 sequence (Q9GZV3 whole entry): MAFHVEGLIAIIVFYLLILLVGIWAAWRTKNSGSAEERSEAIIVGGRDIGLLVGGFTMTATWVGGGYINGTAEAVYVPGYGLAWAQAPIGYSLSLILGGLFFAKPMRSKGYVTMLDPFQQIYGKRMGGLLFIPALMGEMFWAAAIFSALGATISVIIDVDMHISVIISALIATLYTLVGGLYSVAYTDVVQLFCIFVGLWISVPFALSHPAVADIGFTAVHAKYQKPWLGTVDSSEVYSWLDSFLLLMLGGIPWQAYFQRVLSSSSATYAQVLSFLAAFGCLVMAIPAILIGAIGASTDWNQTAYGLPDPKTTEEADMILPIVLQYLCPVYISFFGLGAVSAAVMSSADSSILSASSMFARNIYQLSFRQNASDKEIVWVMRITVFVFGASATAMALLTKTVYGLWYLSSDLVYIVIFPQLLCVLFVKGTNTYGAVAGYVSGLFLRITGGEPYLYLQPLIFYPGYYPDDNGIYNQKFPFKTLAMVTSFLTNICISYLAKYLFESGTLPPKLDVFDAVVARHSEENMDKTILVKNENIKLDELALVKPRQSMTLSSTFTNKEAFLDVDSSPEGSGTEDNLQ

[3] = insulin promoter down-regulators in MIN6 cells, imaging, high-content screening, mouse beta cells (AID 1628); format: functional
[4] = cytotoxicity in MIN6 insulinoma cells, dose response, cytotoxicity control, cell-based, mouse insulinoma (AID 2122); format: functional;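 further: confirmatory high-throughput counterscreen run to flag cytotoxic compounds; mouse MIN-6 beta cells carrying an insulin promoter eGFP reporter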
Caspase-3 = target: T4, Caspase-3 (Homo sapiens, UniProt P42574); format: functional;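 further: Dose-response selectivity test against caspase-3 for candidate inhibitors of sentrin-specific proteases (SENPs)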
T4 sequence (P42574 whole entry): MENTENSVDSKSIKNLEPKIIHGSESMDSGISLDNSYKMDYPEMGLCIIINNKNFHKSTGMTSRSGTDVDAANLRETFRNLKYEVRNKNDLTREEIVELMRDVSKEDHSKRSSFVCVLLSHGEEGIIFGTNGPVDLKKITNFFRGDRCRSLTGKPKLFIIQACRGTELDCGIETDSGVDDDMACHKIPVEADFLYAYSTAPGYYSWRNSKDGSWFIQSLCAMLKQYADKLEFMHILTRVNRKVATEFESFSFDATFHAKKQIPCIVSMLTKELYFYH

[5] = target: T5, Sentrin-specific protease 7 (Homo sapiens, UniProt Q9BQF6); format: functional;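 further: Luminescence-based dose-response confirmation of ultra-high-throughput screening hits, measuring inhibition of SENP7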
T5 sequence (Q9BQF6 whole entry): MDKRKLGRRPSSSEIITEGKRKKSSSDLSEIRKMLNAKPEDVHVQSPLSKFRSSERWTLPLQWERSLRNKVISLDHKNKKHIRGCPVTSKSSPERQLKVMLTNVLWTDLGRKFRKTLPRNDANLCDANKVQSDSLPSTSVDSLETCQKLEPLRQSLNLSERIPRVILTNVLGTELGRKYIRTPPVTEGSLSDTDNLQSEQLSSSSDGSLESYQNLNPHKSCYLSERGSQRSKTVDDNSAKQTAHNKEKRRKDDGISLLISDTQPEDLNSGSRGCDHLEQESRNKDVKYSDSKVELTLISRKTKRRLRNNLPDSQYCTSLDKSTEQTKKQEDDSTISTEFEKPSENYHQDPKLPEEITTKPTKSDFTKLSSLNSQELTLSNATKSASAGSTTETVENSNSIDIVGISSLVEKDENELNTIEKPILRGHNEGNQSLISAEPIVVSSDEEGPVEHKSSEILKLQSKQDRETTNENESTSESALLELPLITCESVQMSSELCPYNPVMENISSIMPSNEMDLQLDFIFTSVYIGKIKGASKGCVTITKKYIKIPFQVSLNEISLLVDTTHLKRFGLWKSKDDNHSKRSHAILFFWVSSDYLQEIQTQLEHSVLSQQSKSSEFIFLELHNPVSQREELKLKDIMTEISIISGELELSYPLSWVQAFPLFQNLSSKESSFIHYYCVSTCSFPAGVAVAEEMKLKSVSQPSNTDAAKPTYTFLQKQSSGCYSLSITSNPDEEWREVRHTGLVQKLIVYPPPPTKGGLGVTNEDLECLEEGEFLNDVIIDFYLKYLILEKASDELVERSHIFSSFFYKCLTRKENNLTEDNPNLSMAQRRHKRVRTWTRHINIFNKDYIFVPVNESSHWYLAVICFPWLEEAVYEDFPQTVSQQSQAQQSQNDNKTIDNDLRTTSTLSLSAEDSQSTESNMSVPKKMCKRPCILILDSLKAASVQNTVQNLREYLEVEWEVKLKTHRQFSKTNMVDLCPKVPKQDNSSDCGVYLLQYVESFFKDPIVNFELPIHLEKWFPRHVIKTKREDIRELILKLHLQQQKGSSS

[6] = target: T6, Sentrin-specific protease 6 (Homo sapiens, UniProt Q9GZR1); format: functional;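 further: Luminescence-based dose-response confirmatory assay of SENP6 inhibition, following up an ultra-high-throughput screen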
T6 sequence (Q9GZR1 whole entry): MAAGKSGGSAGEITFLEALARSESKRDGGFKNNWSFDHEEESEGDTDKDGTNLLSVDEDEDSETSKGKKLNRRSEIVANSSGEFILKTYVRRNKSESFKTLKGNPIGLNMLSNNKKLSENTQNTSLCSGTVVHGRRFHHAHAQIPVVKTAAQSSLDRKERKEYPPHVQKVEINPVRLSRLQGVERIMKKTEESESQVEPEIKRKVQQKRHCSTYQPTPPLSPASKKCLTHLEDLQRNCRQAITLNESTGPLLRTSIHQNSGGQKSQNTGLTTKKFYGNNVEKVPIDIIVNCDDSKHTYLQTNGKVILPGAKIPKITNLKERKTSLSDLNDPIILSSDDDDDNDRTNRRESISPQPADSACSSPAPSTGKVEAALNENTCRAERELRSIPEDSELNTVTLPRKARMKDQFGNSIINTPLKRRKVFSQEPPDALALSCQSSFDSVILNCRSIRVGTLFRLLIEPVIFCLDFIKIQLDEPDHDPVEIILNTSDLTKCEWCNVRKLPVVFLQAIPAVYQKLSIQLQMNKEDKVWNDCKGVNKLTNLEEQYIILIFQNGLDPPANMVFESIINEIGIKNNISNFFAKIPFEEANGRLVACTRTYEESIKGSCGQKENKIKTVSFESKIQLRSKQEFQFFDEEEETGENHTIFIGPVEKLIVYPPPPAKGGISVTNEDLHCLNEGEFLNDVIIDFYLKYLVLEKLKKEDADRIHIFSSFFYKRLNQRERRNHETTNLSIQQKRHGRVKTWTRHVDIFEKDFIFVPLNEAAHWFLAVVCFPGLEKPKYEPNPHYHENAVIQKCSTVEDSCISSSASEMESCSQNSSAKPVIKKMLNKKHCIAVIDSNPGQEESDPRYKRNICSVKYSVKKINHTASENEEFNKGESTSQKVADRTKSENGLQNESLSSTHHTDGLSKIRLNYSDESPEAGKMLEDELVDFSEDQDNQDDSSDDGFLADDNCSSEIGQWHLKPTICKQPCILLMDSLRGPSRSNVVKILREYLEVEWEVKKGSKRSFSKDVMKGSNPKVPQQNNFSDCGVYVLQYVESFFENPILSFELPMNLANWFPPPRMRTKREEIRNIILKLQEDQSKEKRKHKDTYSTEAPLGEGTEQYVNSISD

[7] = target: T7, Sentrin-specific protease 8 (Homo sapiens, UniProt Q96LD8); format: functional;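 further: luminescence read-out of SENP8 inhibition, dose-response confirmation following an ultra-high-throughput screen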
T7 sequence (Q96LD8 whole entry): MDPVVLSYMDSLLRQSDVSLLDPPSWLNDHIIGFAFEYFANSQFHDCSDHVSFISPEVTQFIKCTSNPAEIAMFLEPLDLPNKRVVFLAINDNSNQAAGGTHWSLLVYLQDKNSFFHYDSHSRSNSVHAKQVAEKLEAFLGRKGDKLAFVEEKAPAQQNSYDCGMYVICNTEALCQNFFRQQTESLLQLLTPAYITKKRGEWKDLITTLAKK

[8] = target: Luciferin 4-monooxygenase (Photinus pyralis, UniProt P08659); assay: firefly luciferase enzyme inhibitors, dose response, biochemical, luminescence (AID 1891)
Sequence of Luciferin 4-monooxygenase (P08659 whole entry): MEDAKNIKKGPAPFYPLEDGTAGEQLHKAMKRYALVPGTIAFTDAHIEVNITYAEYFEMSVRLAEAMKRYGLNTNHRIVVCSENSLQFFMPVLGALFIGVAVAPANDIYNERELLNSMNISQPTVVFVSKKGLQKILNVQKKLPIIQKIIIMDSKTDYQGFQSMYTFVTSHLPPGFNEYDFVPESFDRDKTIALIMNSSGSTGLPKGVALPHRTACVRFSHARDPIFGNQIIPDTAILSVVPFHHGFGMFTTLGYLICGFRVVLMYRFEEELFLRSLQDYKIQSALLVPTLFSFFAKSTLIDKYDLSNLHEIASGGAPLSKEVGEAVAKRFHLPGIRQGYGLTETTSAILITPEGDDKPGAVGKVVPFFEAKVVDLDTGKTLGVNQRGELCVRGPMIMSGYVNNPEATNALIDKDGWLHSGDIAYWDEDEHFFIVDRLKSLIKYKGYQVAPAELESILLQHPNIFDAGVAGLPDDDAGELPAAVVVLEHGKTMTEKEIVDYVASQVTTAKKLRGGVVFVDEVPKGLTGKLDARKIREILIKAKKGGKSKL

[9] = Luminescence Cell-Based Dose Confirmation HTS to Identify Inhibitors of Platelet Dense Granule Release. [Related pubchem assays: 1663 (Primary HTS), 1678 (Summary of Project)]; format: functional
HEK293 = assay: inhibitors of LMP1-driven NF-kB reporter, dose response, cell-based, HEK293, luciferase, cherry-pick (AID 588343); format: functional; conditions: Homo sapiens
[10] = Shn3 3'UTR reporter inhibitors, dose response, cell-based, Clone20 osteoblasts, firefly luciferase, cherry-picked (AID 624132); format: functional;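 further: firefly luciferase luminescence from reporter carrying the Shn3 3'UTR in osteoblasts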
[11] = HepG2 cell cytotoxicity, dose response, cytotoxicity control for Shn3 inhibitor project, CellTiter-Glo, cherry-picked (AID 624134); format: functional, cell-based
[12] = control 3'UTR Renilla luciferase suppression, dose response, counter-screen for Shn3 inhibitor project, cell-based, Clone20-Shn3RL, cherry-picked (AID 624133); format: functional
[13] = microbe, parasite or virus in culture; format: functional; conditions: Mycobacterium tuberculosis

## Cc1ccccc1C(=O)NNC(=S)NC(=O)c1ccccc1
Leucine aminopeptidase
  IC50: 91.2 µM (active)
[1]
  EC50: 2.11 µM (active)
[2]
  IC50: 12.6 µM (active)

## CCc1ccc2c(c1)CCCN2C(=O)c1ccccc1C(=O)O
[3]
  IC50: 1.56 µM (active)
[4]
  IC50: 0.994 µM (active)

## O=c1cc(-c2ccc(O)cc2)oc2ccc(O)cc12
Caspase-3
  IC50: 16.8 µM (active)
[5]
  IC50: 9.8 µM (active)
[6]
  IC50: 87.7 µM (active)
[7]
  IC50: 11.6 µM (active)

## Cc1cc(-c2csc(Nc3ccccn3)n2)ccc1F
Caspase-3
  IC50: 26 µM (active)
[5]
  IC50: 3.53 µM (active)
[6]
  IC50: 12.5 µM (active)
[7]
  IC50: 19.2 µM (active)

## Cn1c(=O)c2c(nc(NCc3ccco3)n2C/C=C/c2ccccc2)n(C)c1=O
[3]
  IC50: 0.41 µM (active)
[4]
  IC50: < 0.25 µM (active)
[8]
  EC50: > 112 µM (not active)
[9]
  EC50: 30 µM (active)
HEK293
  AC50: 4.38 µM (active)
[10]
  AC50: 1.08 µM (active)
[11]
  AC50: 4.24 µM (active)
[12]
  AC50: 1.13 µM (active)

## O=C1/C(=C/c2ccc([N+](=O)[O-])cc2)CCc2ccccc21
[8]
  EC50: 0.404 µM (active)
[9]
  EC50: 1.11 µM (active)
Caspase-3
  IC50: 5.9 µM (active)
[5]
  IC50: 0.696 µM (active)
[6]
  IC50: 0.789 µM (active)
[7]
  IC50: 1.13 µM (active)

## Brc1ccc2c(c1)C(OC1CN3CCC1CC3)c1ccccc1CS2 (stereo unspecified)
[3]
  IC50: 2.34 µM (active)
[4]
  IC50: 2.13 µM (active)
[13]
  CC50: 13.1 µM (active)
[2]
  IC50: 16 µM (active)
